The text below walks through data of ChEMBL document CHEMBL4190255, “Novel celastrol derivatives with improved selectivity and enhanced antitumour activity: Design, synthesis and biological evaluation” (Eur J Med Chem, 2017).

Some results are limits rather than exact numbers.

Data set [1] deals with MIA PaCa-2. Put plainly: Antiproliferative activity against human MIAPaCa2 cells after 72 hrs by MTT assay. It is filed as functional, cell-based. As to conditions: MIA PaCa-2, 72 h. For orientation: Formazan colour is commonly taken as a measure of viable cells.
Data set [2] relates to A549. Put plainly: Antiproliferative activity against human A549 cells after 72 hrs by MTT assay. Conditions: A549, 72 h. The format is functional, cell-based.
In data set [3] the test system is BJ. Put plainly: Cytotoxicity against human BJ cells assessed as reduction in cell viability after 72 hrs by MTT assay. It is filed as cell-based.
Data set [4] is described as follows: Selectivity index, ratio of IC50 for human BJ cells to IC50 for human A549 cells. The format is toxicity. As to conditions: BJ cells versus A549 cells, read-out: Ratio IC50.
Data set [5] in a line: Selectivity index, ratio of IC50 for human BJ cells to IC50 for human MIAPaCa2 cells. The format is toxicity. Conditions: BJ cells versus MIAPaCa2 cells, read-out: Ratio IC50.
Data set [6] concerns SK-BR-3. Description: Antiproliferative activity against human SKBR3 cells after 72 hrs by MTT assay. The format is functional, cell-based. Conditions: SK-BR-3, 72 h.
Data set [7] in a line: Selectivity index, ratio of IC50 for human BJ cells to IC50 for human SKOV3 cells. It is filed as toxicity. Conditions: BJ cells versus SKOV3 cells, read-out: Ratio IC50.

One may read the IC50 as the concentration that inhibits the measured activity by half. For `CC(=O)Oc1cc2c(c(C)c1OC(C)=O)C(=O)C=C1[C@@]2(C)CC[C@@]2(C)[C@@H]3C[C@](C)(N=C=O)CC[C@]3(C)CC[C@]12C`, the IC50 was > 5000 nM in data set [1] and > 15000 nM in data set [2].

Take `CC1=C(O)C(=O)C=C2C1=CC=C1[C@@]2(C)CC[C@@]2(C)[C@@H]3C[C@](C)(NC(N)=O)CC[C@]3(C)CC[C@]12C`: the IC50 in data set [1] turned out to be 630 nM; in data set [2], 2480 nM.

Take `CCCCNC(=O)N[C@]1(C)CC[C@]2(C)CC[C@]3(C)C4=CC=C5C(=CC(=O)C(O)=C5C)[C@]4(C)CC[C@@]3(C)[C@@H]2C1`: the IC50 is 2120 nM in data set [3], 310 nM in data set [1] and 1440 nM in data set [2]. The selectivity ratio in data set [4] came to 1.48; in data set [5], 6.94.

As for `CC1=C(O)C(=O)C=C2C1=CC=C1[C@@]2(C)CC[C@@]2(C)[C@@H]3C[C@](C)(NC(=O)NCc4ccc(F)cc4)CC[C@]3(C)CC[C@]12C`, the concentration for half-maximal inhibition (IC50) in data set [1] stood at 560 nM; in data set [2] it was 4340 nM.

As to `CC1=C(O)C(=O)C=C2C1=CC=C1[C@@]2(C)CC[C@@]2(C)[C@@H]3C[C@](C)(NC(=O)Nc4ccccc4)CC[C@]3(C)CC[C@]12C`, the figures for the IC50 in data set [1] and in data set [2] were 400 nM and 2270 nM, respectively.

Turning to `CNC(=O)N[C@]1(C)CC[C@]2(C)CC[C@]3(C)C4=CC(=O)c5c(cc(O)c(O)c5C)[C@]4(C)CC[C@@]3(C)[C@@H]2C1`, the IC50 in data set [1] was > 5000 nM; in data set [2], > 15000 nM.

With `CNC(=O)N[C@]1(C)CC[C@]2(C)CC[C@]3(C)C4=CC=C5C(=CC(=O)C(O)=C5C)[C@]4(C)CC[C@@]3(C)[C@@H]2C1`, the IC50 in data set [3] was 1960 nM; in data set [1] it was 410 nM; in data set [2] it was 1450 nM. The selectivity ratio in data set [4] was 1.36; in data set [5] it was 4.72.

As to `CCCNC(=O)N[C@]1(C)CC[C@]2(C)CC[C@]3(C)C4=CC=C5C(=CC(=O)C(O)=C5C)[C@]4(C)CC[C@@]3(C)[C@@H]2C1`, the IC50 came out at 660 nM in data set [1] and 1260 nM in data set [2].

For `CC1=C(O)C(=O)C=C2C1=CC=C1[C@@]2(C)CC[C@@]2(C)[C@@H]3C[C@](C)(NC(=O)NO)CC[C@]3(C)CC[C@]12C`, the half-maximal inhibitory concentration (IC50) in data set [1] amounted to 850 nM; in data set [2], 3500 nM.

Turning to `CCNC(=O)N[C@]1(C)CC[C@]2(C)CC[C@]3(C)C4=CC=C5C(=CC(=O)C(O)=C5C)[C@]4(C)CC[C@@]3(C)[C@@H]2C1`, the results for the IC50 in data set [1] and in data set [2] were 550 nM and 1410 nM, respectively.

Regarding `Cc1c(O)c(O)cc2c1C(=O)C=C1[C@@]2(C)CC[C@@]2(C)[C@@H]3C[C@](C)(NC(N)=O)CC[C@]3(C)CC[C@]12C`, the IC50 in data set [1] is > 5000 nM; in data set [2], > 15000 nM.

On to `CC(=O)Oc1cc2c(c(C)c1OC(C)=O)C(=O)C=C1[C@@]2(C)CC[C@@]2(C)[C@@H]3C[C@](C)(C(=O)O)CC[C@]3(C)CC[C@]12C`, for which the IC50 in data set [1] is > 5000 nM; in data set [2], > 15000 nM.

`CC1=C(O)C(=O)C=C2C1=CC=C1[C@@]2(C)CC[C@@]2(C)[C@@H]3C[C@](C)(NC(=O)Nc4ccccc4N)CC[C@]3(C)CC[C@]12C`: the IC50 amounted to 560 nM in data set [1] and 2990 nM in data set [2].

For `CNC(=O)N[C@]1(C)CC[C@]2(C)CC[C@]3(C)C4=CC(=O)c5c(cc(OC)c(OC)c5C)[C@]4(C)CC[C@@]3(C)[C@@H]2C1`, the IC50 was > 5000 nM in data set [1] and > 15000 nM in data set [2].

For `Cc1c(O)c(O)cc2c1C(=O)C=C1[C@@]2(C)CC[C@@]2(C)[C@@H]3C[C@](C)(C(=O)O)CC[C@]3(C)CC[C@]12C`, the IC50 is > 5000 nM in data set [1] and > 15000 nM in data set [2].

Take `CC1=C(O)C(=O)C=C2C1=CC=C1[C@@]2(C)CC[C@@]2(C)[C@@H]3C[C@](C)(NC(=O)NCc4ccc(C)cc4)CC[C@]3(C)CC[C@]12C`: the IC50 came to 450 nM in data set [1] and 2450 nM in data set [2].

On to `CC1=C(O)C(=O)C=C2C1=CC=C1[C@@]2(C)CC[C@@]2(C)[C@@H]3C[C@](C)(C(=O)O)CC[C@]3(C)CC[C@]12C` [CELASTROL], for which the selectivity ratio in data set [4] was 1.75; in data set [7] it was 2.34; in data set [5], 5.97. This compound gave an IC50 in data set [6] of 720 nM.

As for `CC1=C(O)C(=O)C=C2C1=CC=C1[C@@]2(C)CC[C@@]2(C)[C@@H]3C[C@](C)(NC(=O)NCCc4ccccc4)CC[C@]3(C)CC[C@]12C`, the values for the IC50 in data set [1] and in data set [2] were 410 nM and 1660 nM, respectively.

Turning to `CC(=O)Oc1cc2c(c(C)c1OC(C)=O)CC=C1[C@@]2(C)CC[C@@]2(C)[C@@H]3C[C@](C)(N=C=O)CC[C@]3(C)CC[C@]12C`, the values for the 50% inhibitory concentration (IC50) in data set [1] and in data set [2] were 1410 nM and 2890 nM, respectively.
